The source made the active and inactive calls. How the calls were made is not given here.
Tested on: CCRIS mutagenicity, Ames/micronucleus/aberration tests
Assay: CCRIS mutagenicity studies

Measured: mutagenic call

C1COCCO1
inactive: Test System: AMES SALMONELLA TYPHIMURIUM, Strain/Indicator: TA1535, Metabolic Activation: RAT LIVER S-9, PHENOBARBITAL AND BETA-NAPHTHOFLAVONE (30%), Method: PREINCUBATION inactive; negative | Test System: AMES SALMONELLA TYPHIMURIUM, Strain/Indicator: TA1535, Metabolic Activation: RAT LIVER S-9, PHENOBARBITAL AND BETA-NAPHTHOFLAVONE, Method: GAS EXPOSURE inactive; negative | Test System: AMES SALMONELLA TYPHIMURIUM, Strain/Indicator: TA1537, Metabolic Activation: HAMSTER LIVER S-9, PHENOBARBITAL AND BETA-NAPHTHOFLAVONE (10%), Method: PREINCUBATION inactive; negative | Test System: AMES SALMONELLA TYPHIMURIUM, Strain/Indicator: TA1537, Metabolic Activation: HAMSTER LIVER S-9, PHENOBARBITAL AND BETA-NAPHTHOFLAVONE (30%), Method: PREINCUBATION inactive; negative | Test System: AMES SALMONELLA TYPHIMURIUM, Strain/Indicator: TA1537, Metabolic Activation: NONE, Method: GAS EXPOSURE inactive; negative | Test System: AMES SALMONELLA TYPHIMURIUM, Strain/Indicator: TA1537, Metabolic Activation: NONE, Method: PREINCUBATION inactive; negative | Test System: AMES SALMONELLA TYPHIMURIUM, Strain/Indicator: TA1537, Metabolic Activation: NONE, Method: STANDARD PLATE inactive; negative | Test System: AMES SALMONELLA TYPHIMURIUM, Strain/Indicator: TA1537, Metabolic Activation: RAT LIVER S-9, PHENOBARBITAL AND 5,6-BENZOFLAVONE, Method: PREINCUBATION inactive; negative | Test System: AMES SALMONELLA TYPHIMURIUM, Strain/Indicator: TA1537, Metabolic Activation: RAT LIVER S-9, PHENOBARBITAL AND 5,6-BENZOFLAVONE, Method: STANDARD PLATE inactive; negative | Test System: AMES SALMONELLA TYPHIMURIUM, Strain/Indicator: TA1537, Metabolic Activation: RAT LIVER S-9, PHENOBARBITAL AND BETA-NAPHTHOFLAVONE (10%), Method: PREINCUBATION inactive; negative | Test System: AMES SALMONELLA TYPHIMURIUM, Strain/Indicator: TA1537, Metabolic Activation: RAT LIVER S-9, PHENOBARBITAL AND BETA-NAPHTHOFLAVONE (30%), Method: PREINCUBATION inactive; negative | Test System: AMES SALMONELLA TYPHIMURIUM, Strain/Indicator: TA1537, Metabolic Activation: RAT LIVER S-9, PHENOBARBITAL AND BETA-NAPHTHOFLAVONE, Method: GAS EXPOSURE inactive; negative | Test System: E.COLI, Strain/Indicator: WP2 (PKM101), Metabolic Activation: NONE, Method: PREINCUBATION inactive; negative | Test System: E.COLI, Strain/Indicator: WP2 (PKM101), Metabolic Activation: NONE, Method: STANDARD PLATE inactive; negative | Test System: E.COLI, Strain/Indicator: WP2 (PKM101), Metabolic Activation: RAT LIVER S-9, PHENOBARBITAL AND 5,6-BENZOFLAVONE, Method: PREINCUBATION inactive; negative | Test System: E.COLI, Strain/Indicator: WP2 (PKM101), Metabolic Activation: RAT LIVER S-9, PHENOBARBITAL AND 5,6-BENZOFLAVONE, Method: STANDARD PLATE inactive; negative | Test System: E.COLI, Strain/Indicator: WP2 UVRA (PKM101), Metabolic Activation: NONE, Method: PREINCUBATION inactive; negative | Test System: E.COLI, Strain/Indicator: WP2 UVRA (PKM101), Metabolic Activation: NONE, Method: STANDARD PLATE inactive; negative | Test System: E.COLI, Strain/Indicator: WP2 UVRA (PKM101), Metabolic Activation: RAT LIVER S-9, PHENOBARBITAL AND 5,6-BENZOFLAVONE, Method: STANDARD PLATE inactive; negative | Test System: E.COLI, Strain/Indicator: WP2 UVRA(PKM101), Metabolic Activation: RAT LIVER S-9, PHENOBARBITAL AND 5,6-BENZOFLAVONE, Method: PREINCUBATION inactive; negative | Test System: E.COLI, Strain/Indicator: WP2UVRA/PKM101, Metabolic Activation: NONE, Method: GAS EXPOSURE inactive; negative | Test System: E.COLI, Strain/Indicator: WP2UVRA/PKM101, Metabolic Activation: RAT LIVER S-9, PHENOBARBITAL AND BETA-NAPHTHOFLAVONE, Method: GAS EXPOSURE inactive; negative | Test System: E.COLI, Strain/Indicator: WP2UVRA, Metabolic Activation: HAMSTER LIVER S-9, PHENOBARBITAL AND BETA-NAPHTHOFLAVONE (10%), Method: PREINCUBATION inactive; negative | Test System: E.COLI, Strain/Indicator: WP2UVRA, Metabolic Activation: HAMSTER LIVER S-9, PHENOBARBITAL AND BETA-NAPHTHOFLAVONE (30%), Method: PREINCUBATION inactive; negative | Test System: E.COLI, Strain/Indicator: WP2UVRA, Metabolic Activation: NONE, Method: GAS EXPOSURE inactive; negative | Test System: E.COLI, Strain/Indicator: WP2UVRA, Metabolic Activation: NONE, Method: PREINCUBATION inactive; negative | Test System: E.COLI, Strain/Indicator: WP2UVRA, Metabolic Activation: RAT LIVER S-9, PHENOBARBITAL AND BETA-NAPHTHOFLAVONE (10%), Method: PREINCUBATION inactive; negative | Test System: E.COLI, Strain/Indicator: WP2UVRA, Metabolic Activation: RAT LIVER S-9, PHENOBARBITAL AND BETA-NAPHTHOFLAVONE (30%), Method: PREINCUBATION inactive; negative | Test System: E.COLI, Strain/Indicator: WP2UVRA, Metabolic Activation: RAT LIVER S-9, PHENOBARBITAL AND BETA-NAPHTHOFLAVONE, Method: GAS EXPOSURE inactive; negative | Test System: MOUSE LYMPHOMA, Strain/Indicator: L5178Y (TK+/TK-), Metabolic Activation: NONE, Method: MICROTITER inactive; negative | Test System: MOUSE LYMPHOMA, Strain/Indicator: L5178Y (TK+/TK-), Metabolic Activation: NONE, Method: SUSPENSION/PLATE inactive; negative | Test System: MOUSE LYMPHOMA, Strain/Indicator: L5178Y (TK+/TK-), Metabolic Activation: RAT LIVER S-9, PHENOBARBITAL AND 5,6-BENZOFLAVONE (2 OR 5%), Method: MICROTITER inactive; negative | Test System: MOUSE LYMPHOMA, Strain/Indicator: L5178Y (TK+/TK-), Metabolic Activation: RAT, LIVER, S-9, AROCLOR 1254, Method: SUSPENSION/PLATE inactive; negative
